Target: T1, bromodomain BRD4 (44-168), BRD4 (333-460), and BRD4 (1-477 or 44-460) (Homo sapiens, UniProt O60885)
T1 construct: BRD4(44-168), BRD4(333-460), BRD4(44-460), BRD4(1-477), O60885-1; fused on or other part: N-terminal BirA biotinylation motif, biotinylated; The TVMV-cleavable His6 tag is removed, except in some BRD4(44-460) runs detected with anti-His terbium cryptate
Experiment: Time Resolved Fluorescence Resonance Energy Transfer (TR-FRET) binding assay
Conditions: one of the FRET assays described

SMILES	IC50 [nM]
Cc1noc(C)c1-c1cc(C(N)=O)c2c3ccc(C(=O)N4CCOCC4)cc3n(Cc3ccccc3)c2c1 [Example 188, 9-Benzyl-2-(3,5-dimethyl-4-isoxazolyl)-7-(morpholine-4-carbonyl)-9H-carbazole-4-carboxamide]	< 50
CON(C)C(=O)c1ccc2c3c(C(N)=O)cc(-c4c(C)noc4C)cc3n(Cc3ccccc3)c2c1 [Example 189, 9-Benzyl-7-(3,5-dimethyl-4-isoxazolyl)-N˜2˜-methoxy-N˜2˜-methyl-9H-carbazole-2,5-dicarboxamide]	< 50
Cc1noc(C)c1-c1cc(C(N)=O)c2c3ccc(C(=O)c4cccc(F)c4)cc3n(Cc3ccccc3)c2c1 [Example 190, 9-Benzyl-2-(3,5-dimethyl-4-isoxazolyl)-7-(3-fluorobenzoyl)-9H-carbazole-4-carboxamide]	< 500
COC(=O)c1ccc2c3c(C#N)cc(-c4c(C)noc4C)cc3n(C(c3ccccc3)c3ccccc3)c2c1 [Example 191, Methyl 5-cyano-7-(3,5-dimethyl-4-isoxazolyl)-9-(diphenylmethyl)-9H-carbazole-2-carboxylate]	< 50
COC(=O)c1ccc2c3c(C(N)=O)cc(-c4c(C)noc4C)cc3n(C(c3ccccc3)c3ccccc3)c2c1 [Example 192, Methyl 5-carbamoyl-7-(3,5-dimethyl-4-isoxazolyl)-9-(diphenylmethyl)-9H-carbazole-2-carboxylate]	< 50
Cc1noc(C)c1-c1cc(C#N)c2c3ccc(C(=O)O)cc3n(C(c3ccccc3)c3ccccc3)c2c1 [Example 193, 5-Cyano-7-(3,5-dimethyl-4-isoxazolyl)-9-(diphenylmethyl)-9H-carbazole-2-carboxylic acid]	< 50
Cc1noc(C)c1-c1cc(C#N)c2c3ccc(C(N)=O)cc3n(C(c3ccccc3)c3ccccc3)c2c1 [Example 194, 5-Cyano-7-(3,5-dimethyl-4-isoxazolyl)-9-(diphenylmethyl)-9H-carbazole-2-carboxamide]	< 50
Cc1noc(C)c1-c1cc(C(N)=O)c2c3ccc(C(=O)N(C)C)cc3n(C(c3ccccc3)c3ccccc3)c2c1 [Example 195, 7-(3,5-Dimethyl-4-isoxazolyl)-9-(diphenylmethyl)-N˜2˜,N˜2˜-dimethyl-9H-carbazole-2,5-dicarboxamide]	< 50
Cc1noc(C)c1-c1cc(C(N)=O)c2c3ccc(C(=O)N4CCOCC4)cc3n(C(c3ccccc3)c3ccccc3)c2c1 [Example 196, 2-(3,5-Dimethyl-4-isoxazolyl)-9-(diphenylmethyl)-7-(4-morpholinylcarbonyl)-9H-carbazole-4-carboxamide]	< 50
Cc1noc(C)c1-c1cc(C(N)=O)c2c3ccc(C(C)(C)O)cc3n(CC3CCOCC3)c2c1 [Example 197, 2-(3,5-dimethyl-4-isoxazolyl)-7-(1-hydroxy-1-methylethyl)-9-(tetrahydro-2H-pyran-4-ylmethyl)-9H-carbazole-4-carboxamide]	< 50
COC(C)(C)c1ccc2c3c(C(N)=O)cc(-c4c(C)noc4C)cc3n([C@H](c3ccccc3)C3CCOCC3)c2c1 [Example 228, 2-(Dimethyl-1,2-oxazol-4-yl)-7-(2-methoxypropan-2-yl)-9-[(S)-oxan-4-yl(phenyl)methyl]-9H-carbazole-4-carboxamide]	< 50
Cc1noc(C)c1-c1cc(C(N)=O)c2c3ccc(C(C)C)cc3n([C@H](c3ccccc3)C3CCOCC3)c2c1 [Example 229, 2-(Dimethyl-1,2-oxazol-4-yl)-9-[(S)-oxan-4-yl(phenyl)methyl]-7-(propan-2-yl)-9H-carbazole-4-carboxamide]	< 50

From patent US9492460B2, “Carbazole compounds useful as bromodomain inhibitors” (Bristol-Myers Squibb Company, priority 2013, dated 2016)
